According to the NIST ThermoML archive (doi:10.1016/j.tca.2011.06.003):
Numbers after ± are expanded uncertainties.

Details: 298.15 K, 101.33 kPa, Liquid; for viscosity: Capillary tube (Ostwald / Ubbelohde) method; for speed of sound: Sing-around technique in a fixed-path interferometer; for mass density: Vibrating tube method

Row | viscosity [mPa·s] | speed of sound [m/s] | mass density [kg/m3] | Structure (SMILES)
1 | 2.063 ± 0.013 | 1140.4 ± 0.8 | 781.482 ± 0.15 | CC(C)O [propan-2-ol]
2 | 3.307 ± 0.02 | 1188.8 ± 0.8 | 798.104 ± 0.14 | CC(C)CO [2-methyl-1-propanol]
3 | 2.565 ± 0.016 | 1241.1 ± 0.8 | 805.953 ± 0.14 | CCCCO [butan-1-ol]
4 | 5.627 ± 0.033 | 1670.5 ± 1 | 945.548 ± 0.099 | NCCNCCN [di(2-aminoethyl)amine]
